Measured values published in patent US10828301B2, “2,4-pyrimidinediamine compounds and their uses” (Rigel Pharmaceuticals, Inc, priority 2002, dated 2020).
pIC50: −log10 of the molar value. Like-named read-outs stand apart in the source and are kept apart here.

Tests used:
Type in all cases: cell-based
[1] = tested on: cultured human mast cells (CHMC); test: CHMC low cell density IgE activation: tryptase and LTC4 assays; settings: Homo sapiens, Mast cell, Low Density CHMC, anti-IgE activation
Procedure, shortened: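 Cultured human mast cells at low density (1000-1500 per well) rested 1 h at 37° C, then stimulated with anti-IgE for 30 min at 37° C. Supernatant tryptase measured with fluorogenic substrate (30 min, room temperature); LTC4 quantified by ELISA on diluted supernatant.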

[2] = tested on: ionophore-induced degranulation of mast and/or basophil cells; test: Ionophore (ionomycin or A23187)-induced degranulation counter screen; settings: high density BMMC, ionomycin activation, hexosaminidase release, read-out: BMMC Ionomycin Hexos. IC50
Source text: In addition to the FcεRI or FcγRI degranulation pathways discussed above, degranulation of mast and/or basophil cells can be induced by other agents. For example, ionomycin, a calcium ionophore that bypasses the early FcεRI or FcγRI signal transduction machinery of the cell, directly induces a calcium flux that triggers degranulation. Referring again to FIG. 2, activated PLCγ initiates pathways that lead to, among other things, calcium ion mobilization and subsequent degranulation. As illustrated, this Ca^2+ mobilization is triggered late in the FcεRI signal transduction pathway. […] Other ionophores that induce degranulation in this manner include A23187. The ability of granulation-inducing ionophores such as ionomycin to bypass the early stages of the FcεRI and/or FcγRI signaling cascades may be used as a counter screen to identify active compounds of the invention that specifically exert their degranulation-inhibitory activity by blocking or inhibiting the early FcεRI or FcγRI signaling cascades, as discussed above.
Assays suitable for determining the IC50 of ionophore-induced degranulation include any of the previously-described degranulation assays, with the modification that the cells are stimulated or activated with a degranulation-inducing calcium ionophore such as ionomycin or A23187 (A.G. Scientific, San Diego, Calif.) instead of anti-IgE antibodies or an IgE-specific allergen. Specific assays for assessing the ability of a particular 2,4-pyrimidinediamine compound of the invention to inhibit ionophore-induced degranulation are provided in the Examples section.

[3] = tested on: bone marrow derived mast cells (BMMC); test: BMMC high cell density IgE activation: degranulation (hexosiminidase, histamine), leukotriene (LTC4) and cytokine (TNFalpha, IL-6) assays; settings: Mus musculus, anti-IgE activation
Method: After sensitizing, cells are counted, pelleted (1000 rpm, 5-10 minutes), and resuspended at 1-3×10^6 cells/ml in MT buffer. Add 100 ul of cell suspension to each well and 100 ul of compound dilutions. The final vehicle concentration is 0.5% DMSO. Incubate at 37° C. (5% CO2) for 1 hour. After 1 hour of compound treatment, stimulate cells with 6× stimulus (60 ng/ml DNP-BSA). Mix wells with the cells and allow plates to incubate at 37° C. (5% CO2) for one hour. After 1 hour incubation, pellet cells (10 minutes, 1000 RPM) and collect 200 ul per well of the supernatant, being careful not to disturb pellet, and transfer to a clean tube or 96-well plate. Place the supernatant plate on ice. During the 4-5 hour step (see next) perform the hexosiminidase assay. Resuspend cell pellet in 240 ul WEI-conditioned media containing 0.5% DMSO and corresponding concentration of compound. Incubate BMMC cells for 4-5 hours at 37° C. (5% CO2). After incubation, pellet cells (1000 RPM, 10 minutes) and collect 225 ul per well and place in −80° C. until ready to perform ELISAS. ELISAS are performed on appropriately diluted samples (determined empirically for each donor cell population so that the sample measurement falls within the standard curve) following the supplier's instructions.
Add 50 uL of BMMC cell supernatant (see above) to the hexoseaminidase substrate, place at 37° C. for 30 minutes and read the plate at 5, 10, 15, and 30 minutes on a spectrophotometer.

[4] = tested on: cultured human mast cells (CHMC); test: CHMC low cell density ionomycin activation: tryptase assay; settings: Homo sapiens, Mast cell, Low Density CHMC, ionomycin activation, tryptase readout; read-out: CHMC Ionomycin Tryptase
[5] = tested on: cultured human mast cells (CHMC); test: CHMC high cell density IgE activation: degranulation (hexos, tryptase, histamine), leukotriene (LTC4) and cytokine (TNFalpha, IL-13) assays; settings: anti-IgE activation
Method: After sensitizing, cells are counted, pelleted (1000 rpm, 5-10 minutes), and resuspended at 1-2×10^6 cells/ml in MT buffer. Add 100 ul of cell suspension to each well and 100 ul of compound dilutions. The final vehicle concentration is 0.5% DMSO. Incubate at 37° C. (5% CO2) for 1 hour. After 1 hour of compound treatment, stimulate cells with 6× anti-IgE. Mix wells with the cells and allow plates to incubate at 37° C. (5% CO2) for one hour. After 1 hour incubation, pellet cells (10 minutes, 1000 RPM) and collect 200 ul per well of the supernatant, being careful not to disturb pellet. Place the supernatant plate on ice. During the 7-hour step (see next) perform tryptase assay on supernatant that had been diluted 1:500. Resuspend cell pellet in 240 ul of CM media containing 0.5% DMSO and corresponding concentration of compound. Incubate CHMC cells for 7 hours at 37° C. (5% CO2). After incubation, pellet cells (1000 RPM, 10 minutes) and collect 225 ul per well and place in −80° C. until ready to perform ELISAS. ELISAS are performed on appropriately diluted samples (determined empirically for each donor cell population so that the sample measurement falls within the standard curve) following the supplier's instructions.

[6] = hexosaminidase readout, read-out: CHMC anti-IgE Hexos.
[7] = hexosaminidase release, read-out: BMMC anti-IgE hexos IC50
[8] = tryptase readout, read-out: CHMC anti-IgE Tryptase
[9] = IL-6 release, read-out: BMMC anti-IgE IL-6 IC50
[10] = LTC4 release, read-out: BMMC anti-IgE LTC4 IC50
[11] = TNF-alpha release, read-out: BMMC anti-IgE TNF-alpha IC50
[12] = histamine release, read-out: BMMC anti-IgE histamine IC50
[13] = LTC4, read-out: CHMC high density LTC4
[14] = TNF-alpha, read-out: CHMC high density TNF-alpha
[15] = hexosaminidase release, read-out: CHMC high density hexos
[16] = histamine release, read-out: CHMC high density histamine
[17] = tryptase release, read-out: CHMC high density tryptase

SMILES | pIC50 [1, 6] | pIC50 ([2]; Mus musculus) | pIC50 [3, 7] | pIC50 [1, 8] | pIC50 [4] | also measured
Cc1ccc(Nc2ncc(F)c(Nc3ccc(C)cc3)n2)cc1 [Compound R926225, N2,N4-Bis(4-methylphenyl)-5-fluoro-2,4-pyrimidinediamine] | < 5.00 | < 5.00 | < 5.00 |  |  | 
CCc1ccc(Nc2ncc(F)c(Nc3ccc4c(c3)OCCO4)n2)cc1 [Compound R926237, N4-(3,4-Ethylenedioxyphenyl)-N2-(4-ethylphenyl)-5-fluoro-2,4-pyrimidinediamine] |  |  | 5.72 | 5.92 | 5.21 | 
O=C(NCCO)c1cc2cc(Nc3ncc(F)c(Nc4ccc5c(c4)OCCO5)n3)ccc2o1 [Compound R926498, N4-(3,4-Ethylenedioxyphenyl)-5-fluoro-N2-[2-(N-2-hydroxyethylamino)carbonylbenzofuran-5-yl]-2,4-pyrimidinediamine] |  |  | > 6.66 | 6.68 | < 5.00 | pIC50 [3, 9]: > 6.66; pIC50 [3, 10]: 6.00; pIC50 [3, 11]: 6.21; pIC50 [3, 12]: 6.29
Fc1ccc(Nc2ncc(F)c(Nc3ccc4c(c3)OCCO4)n2)cc1 [Compound R926220, N4-(3,4-Ethylenedioxyphenyl)-N2-(4-fluorophenyl)-5-fluoro-2,4-pyrimidinediamine] | < 5.00 | < 5.00 | < 5.00 |  |  | 
CC(C)(C)c1ccc(Nc2ncc(F)c(Nc3ccc(C(C)(C)C)cc3)n2)cc1 [Compound R926222, N2,N4-Bis(4-tert-butylphenyl)-5-fluoro-2,4-pyrimidinediamine] | < 5.00 | < 5.00 | < 5.00 |  |  | 
CC(C)Oc1ccc(Nc2nc(Nc3ccc4oc(CO)cc4c3)ncc2F)cc1 [Compound R926705, 5-Fluoro-N2-[2-(hydroxymethyl)benzofuran-5-yl]-N4-[4-(isopropoxy)phenyl]-2,4-pyrimidinediamine] |  |  |  | 6.58 | < 5.00 | pIC50 ([1]; LTC4 readout, read-out: CHMC anti-IgE LTC4): 6.27; pIC50 [5, 13]: 6.31; pIC50 [5, 14]: < 5.00; pIC50 [5, 15]: 6.00; pIC50 [5, 16]: 6.19; pIC50 [5, 17]: 5.90
CC(C)Oc1ccc(Nc2nc(Nc3ccc(OCCO)cc3)ncc2F)cc1 [Compound R935160, 5-Fluoro-N2-[4-(2-hydroxyethoxy)phenyl]-N4-(4-isopropoxyphenyl)-2,4-pyrimidinediamine] |  |  | > 6.66 | 6.69 | < 5.00 | pIC50 [3, 9]: > 6.66; pIC50 [3, 10]: 6.06; pIC50 [3, 11]: 6.32; pIC50 [3, 12]: 6.50
Nc1cc(Cl)cc(Nc2ncc(F)c(Nc3cc(N)cc(Cl)c3)n2)c1 [Compound R950141, N2,N4-Bis(3-amino-5-chlorophenyl)-5-fluoro-2,4-pyrimidinediamine] |  |  |  | 6.51 | < 5.00 | pIC50 ([5]; IL-13, read-out: CHMC high density IL-13): 6.10; pIC50 [5, 13]: 6.70; pIC50 [5, 14]: 5.98; pIC50 [5, 15]: 6.25; pIC50 [5, 16]: 6.20; pIC50 [5, 17]: 6.21
CCOc1cccc(Nc2ncc(F)c(Nc3cccc(OCC)c3)n2)c1 [Compound R926064, N2,N4-Bis(3-ethoxyphenyl)-5-fluoro-2,4-pyrimidinediamine] | 5.21 | 5.14 | 5.23 |  |  | 
COc1cccc(Nc2ncc(F)c(Nc3cccc(OC)c3)n2)c1 [Compound R926065, N2,N4-Bis(3-methoxyphenyl)-5-fluoro-2,4-pyrimidinediamine] | 5.46 | < 5.00 | < 5.00 |  |  | 
OCc1cc2cc(Nc3ncc(F)c(Nc4cccc(O)c4)n3)ccc2o1 [Compound R926707, 5-Fluoro-N2-[2-(hydroxymethyl)benzofuran-5-yl]-N4-(3-hydroxyphenyl)-2,4-pyrimidinediamine] |  |  | > 7.25 | 6.67 | < 5.00 | pIC50 [3, 9]: > 7.25; pIC50 [3, 10]: 6.41; pIC50 [3, 11]: 7.06; pIC50 [3, 12]: > 7.25
Fc1ccc(Nc2ncc(F)c(Nc3ccc4c(c3)OCCO4)n2)cc1Cl [Compound R926218, N2-(3-Chloro-4-fluorophenyl)-N4-(3,4-ethylenedioxyphenyl)-5-fluoro-2,4-pyrimidinediamine] | < 5.00 | < 5.00 | < 5.00 |  |  | 
CNC(=O)c1cc2cc(Nc3ncc(F)c(Nc4ccc5c(c4)OCCO5)n3)ccc2o1 [Compound R926496, N4-(3,4-Ethylenedioxyphenyl)-5-fluoro-N2-[2-(N-methylamino)carbonylbenzofuran-5-yl]-2,4-pyrimidinediamine] |  |  |  | 6.24 | < 5.00 | pIC50 [5, 13]: 6.38; pIC50 [5, 14]: 6.21; pIC50 [5, 15]: 6.37; pIC50 [5, 16]: 6.09; pIC50 [5, 17]: 6.27
O=C1COc2ccc(Nc3ncc(F)c(Nc4cccc(O)c4)n3)cc2N1 [Compound R909238, N2-(1,4-Benzoxazin-3-on-6-yl)-5-fluoro-N4-(3-hydroxyphenyl)-2,4-pyrimidinediamine] |  |  | > 6.66 |  |  | pIC50 [3, 9]: > 6.66; pIC50 [3, 10]: 6.28; pIC50 [3, 11]: 6.36; pIC50 [3, 12]: > 6.66
CCOC(=O)c1cccc(Nc2ncc(F)c(Nc3cccc(C(=O)OCC)c3)n2)c1 [Compound R926228, N2,N4-Bis(3-ethoxycarbonylphenyl)-5-fluoro-2,4-pyrimidinediamine] | < 5.00 |  | < 5.00 |  |  | 
Fc1cnc(Nc2ccc(N3CCOCC3)cc2)nc1Nc1ccc(N2CCOCC2)cc1 [Compound R926114, N2,N4-Bis[4-(N-morpholino)phenyl]-5-fluoro-2,4-pyrimidinediamine] |  |  |  |  |  | pIC50 [2]: < 5.00
COC(=O)c1cc2cc(Nc3ncc(F)c(Nc4ccc(OC(C)C)cc4)n3)ccc2o1 [Compound R926704, 5-Fluoro-N2-(2-methoxycarbonylbenzofuran-5-yl)-N4-(4-isopropoxyphenyl)-2,4-pyrimidinediamine] |  |  |  | 6.25 | < 5.00 | pIC50 [5, 13]: < 5.00; pIC50 [5, 14]: < 5.00; pIC50 [5, 15]: < 5.70; pIC50 [5, 16]: < 5.00; pIC50 [5, 17]: < 5.00
CCc1ccc(Nc2ncc(F)c(Nc3ccc(CC)cc3)n2)cc1 [Compound R926234, N2,N4-Bis(4-ethylphenyl)-5-fluoro-2,4-pyrimidinediamine] | < 5.00 |  | < 5.00 |  |  | 
